Results taken from patent EP0010667A1, “Cepham compounds, pharmaceutical compositions containing them and processes for the preparation thereof and of known cephem compounds” (FUJISAWA PHARMACEUTICAL CO., LTD., priority 1978, dated 1980).
Converted amounts (≈) assume the structure as drawn.

Legend:
Klebsiella pneumoniae 20 = test: In vitro antibacterial activity, two-fold agar-plate dilution method; assay type: cell-based; conditions: heart infusion agar (HI-agar), incubated at 37°C for 20 hours
Description: (§1) In vitro antibacterial activity was determined by the two-fold agar-plate dilution'method as described below. One loopful of an overnight culture of each test strain in Trypticase soy broth was streaked on heart infusion agar (HI-agar) containing graded concentration of the test compound and incubated at 37°C for 20 hours. The minimal inhibitory concentration (MIC) was expressed in µg/m1.

Proteus mirabilis 18 = test: as above; assay type: cell-based; conditions: heart infusion agar (HI-agar), incubated at 37°C for 20 hours
Description: as §1

## CO/N=C(\C(=O)NC1C(=O)N2C(C(=O)O)C(=COC(C)=O)CSC12)c1csc(N)n1 (stereo not drawn) [Test compound, 7-[2-(2-Aminothiazol-4-yl)-2-methoxyimino-acetamido]-3-acetoxymethylenecepham-4-carboxylic acid (syn isomer)]
Klebsiella pneumoniae 20
  MIC: 6.25 µg/mL (≈ 13.7 µM)
Proteus mirabilis 18
  MIC: 6.25 µg/mL (≈ 13.7 µM)
